# According to ChEMBL document CHEMBL1201862, “PubChem BioAssay data set” (2004):
#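 The compound was tested at five concentrations on cells cultured in 96-well plates, with a 48-hour exposure period. GI50: concentration for 50% inhibition of growth.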 Active and inactive are the calls of the source. No stated cut-off is given here; in the data, active = GI50 up to about 1.1 µM and inactive = higher.
# Tests used:
# Assay in all cases: inhibition of tumour cell growth, NCI panel, 48 h
# [1] = test system: 786-0
# [2] = test system: A498
# [3] = test system: A549
# [4] = test system: ACHN
# [5] = test system: CAKI-1
# [6] = test system: CCRF-CEM
# [7] = test system: DLD-1
# [8] = test system: DMS-273
# [9] = test system: EKVX
# [10] = test system: HCC 2998
# [11] = test system: HCT-116
# [12] = test system: HCT-15
# [13] = test system: HL-60
# [14] = test system: HOP-18
# [15] = test system: HOP-62
# [16] = test system: HOP-92
# [17] = test system: HT-29
# [18] = test system: IGROV-1
# [19] = test system: K562
# [20] = test system: KM-20L2
# [21] = test system: KM12
# [22] = test system: LOX IMVI
# [23] = test system: LXFL 529
# [24] = test system: M14
# [25] = test system: MOLT-4
# [26] = test system: NCI-H226
# [27] = test system: NCI-H23
# [28] = test system: NCI-H460
# [29] = test system: OVCAR-4
# [30] = test system: OVCAR-5
# [31] = test system: OVCAR-8
# [32] = test system: RPMI-8226
# [33] = test system: RXF 393
# [34] = test system: SF-268
# [35] = test system: SF-295
# [36] = test system: SF-539
# [37] = test system: SK-MEL-5
# [38] = test system: SK-OV-3
# [39] = test system: SN12C
# [40] = test system: SNB-19
# [41] = test system: SNB-75
# [42] = test system: SNB-78
# [43] = test system: SR
# [44] = test system: SW-620
# [45] = test system: TK-10
# [46] = test system: U-251
# [47] = test system: UACC-257
# [48] = test system: UACC-62
# [49] = test system: UO-31
# [50] = test system: COLO 205
# [51] = test system: DMS-114
# [52] = test system: M19-MEL
# [53] = test system: Malme-3M
# [54] = test system: NCI-H522
# [55] = test system: OVCAR-3
# [56] = test system: SK-MEL-28
# [57] = test system: SK-MEL-2
smiles,measurement,setting,value
COc1ccc(/C(Cl)=C(\CN(C)C)c2ccc(OC)c(OC)c2)cc1OC.[B],GI50,[1],15.9 µM (inactive)
same,GI50,[2],33.9 µM (inactive)
same,GI50,[3],> 100 µM (inactive)
same,GI50,[4],> 100 µM (inactive)
same,GI50,[5],> 100 µM (inactive)
same,GI50,[6],> 100 µM (inactive)
same,GI50,[7],> 100 µM (inactive)
same,GI50,[8],2.34 µM (inactive)
same,GI50,[9],> 100 µM (inactive)
same,GI50,[10],> 100 µM (inactive)
same,GI50,[11],38.8 µM (inactive)
same,GI50,[12],> 100 µM
same,GI50,[13],> 100 µM (inactive)
same,GI50,[14],> 100 µM (inactive)
same,GI50,[15],24.3 µM (inactive)
same,GI50,[16],2.22 µM (inactive)
same,GI50,[17],> 100 µM (inactive)
same,GI50,[18],> 100 µM (inactive)
same,GI50,[19],> 100 µM (inactive)
same,GI50,[20],> 100 µM (inactive)
same,GI50,[21],> 100 µM (inactive)
same,GI50,[22],> 100 µM (inactive)
same,GI50,[23],> 100 µM (inactive)
same,GI50,[24],> 100 µM (inactive)
same,GI50,[25],> 100 µM (inactive)
same,GI50,[26],> 100 µM (inactive)
same,GI50,[27],95.1 µM (inactive)
same,GI50,[28],> 100 µM (inactive)
same,GI50,[29],1.19 µM (inactive)
same,GI50,[30],> 100 µM (inactive)
same,GI50,[31],> 100 µM (inactive)
same,GI50,[32],> 100 µM (inactive)
same,GI50,[33],15.7 µM (inactive)
same,GI50,[34],> 100 µM (inactive)
same,GI50,[35],12.7 µM (inactive)
same,GI50,[36],4.72 µM (inactive)
same,GI50,[37],> 100 µM (inactive)
same,GI50,[38],14.2 µM (inactive)
same,GI50,[39],> 100 µM (inactive)
same,GI50,[40],17 µM (inactive)
same,GI50,[41],2.5 µM (inactive)
same,GI50,[42],10.1 µM (inactive)
same,GI50,[43],> 100 µM (inactive)
same,GI50,[44],> 100 µM (inactive)
same,GI50,[45],13.7 µM (inactive)
same,GI50,[46],8.61 µM (inactive)
same,GI50,[47],> 100 µM (inactive)
same,GI50,[48],3.94 µM (inactive)
same,GI50,[49],> 100 µM (inactive)
COc1ccc(/C=C/COC(C)=O)cc1OC,GI50,[1],> 100 µM (inactive)
same,GI50,[3],> 100 µM (inactive)
same,GI50,[4],> 100 µM (inactive)
same,GI50,[5],> 100 µM (inactive)
same,GI50,[50],> 100 µM (inactive)
same,GI50,[51],> 100 µM (inactive)
same,GI50,[8],> 100 µM (inactive)
same,GI50,[9],> 100 µM (inactive)
same,GI50,[10],> 100 µM (inactive)
same,GI50,[12],> 100 µM
same,GI50,[16],86.5 µM (inactive)
same,GI50,[17],> 100 µM (inactive)
same,GI50,[18],> 100 µM (inactive)
same,GI50,[19],> 100 µM (inactive)
same,GI50,[20],> 100 µM (inactive)
same,GI50,[21],> 100 µM (inactive)
same,GI50,[23],> 100 µM (inactive)
same,GI50,[52],> 100 µM (inactive)
same,GI50,[25],> 100 µM (inactive)
same,GI50,[53],> 100 µM (inactive)
same,GI50,[26],> 100 µM (inactive)
same,GI50,[27],> 100 µM (inactive)
same,GI50,[54],> 100 µM (inactive)
same,GI50,[55],> 100 µM (inactive)
same,GI50,[29],> 100 µM (inactive)
same,GI50,[30],> 100 µM (inactive)
same,GI50,[31],> 100 µM (inactive)
same,GI50,[32],> 100 µM (inactive)
same,GI50,[33],> 100 µM (inactive)
same,GI50,[34],> 100 µM (inactive)
same,GI50,[35],> 100 µM (inactive)
same,GI50,[36],> 100 µM (inactive)
same,GI50,[56],> 100 µM (inactive)
same,GI50,[57],> 100 µM (inactive)
same,GI50,[37],> 100 µM (inactive)
same,GI50,[38],> 100 µM (inactive)
same,GI50,[39],> 100 µM (inactive)
same,GI50,[40],> 100 µM (inactive)
same,GI50,[41],> 100 µM (inactive)
same,GI50,[42],> 100 µM (inactive)
same,GI50,[43],> 100 µM (inactive)
same,GI50,[44],> 100 µM (inactive)
same,GI50,[45],> 100 µM (inactive)
same,GI50,[46],> 100 µM (inactive)
same,GI50,[47],> 100 µM (inactive)
same,GI50,[48],> 100 µM (inactive)
same,GI50,[49],> 100 µM (inactive)
